In US20120135995A1, “FUNGICIDAL DIPHENYL-SUBSTITUTED PYRIDAZINES” (E.I. Dupont de Nemours and Company, priority 2009, published 2012):

Experiments:
Format in all cases: in vivo
[1] = test system: Puccinia recondita f. sp. tritici; experiment: Test E1: wheat seedlings inoculated with Puccinia recondita f. sp. tritici (wheat leaf rust), sprayed afterwards, visual disease rating; conditions: sprayed after inoculation; for pest or weed control at 40 ppm: 40 ppm test suspension (*)
Source text: (§1) General protocol for preparing test suspensions for Tests A-F: the test compounds were first dissolved in acetone in an amount equal to 3% of the final volume and then suspended at the desired concentration (in ppm) in acetone and purified water (50/50 mix) containing 250 ppm of the surfactant Trem® 014 (polyhydric alcohol esters). The resulting test suspensions were then used in Tests A-F. Spraying a 200 ppm test suspension to the point of run-off on the test plants was the equivalent of a rate of 500 g/ha. An asterisk “*” next to the rating value indicates a 40 ppm test suspension.
Wheat seedlings were inoculated with a spore suspension of Puccinia recondita f. sp. tritici (the causal agent of wheat leaf rust) and incubated in a saturated atmosphere at 20° C. for 24 h, and then moved to a growth chamber at 20° C. for 2 days. At the end of this time the test suspension was sprayed to the point of run-off on the wheat seedlings, and then the seedlings were moved to a growth chamber at 20° C. for 6 days, after which time visual disease ratings were made.
(§2) Results for Tests A-F are given in Table A. In the Table, a rating of 100 indicates 100% disease control and a rating of 0 indicates no disease control (relative to the controls). A dash (-) indicates no test results. All results are for 200 ppm except where followed by “*”, which indicates 40 ppm.

[2] = test system: Erysiphe graminis; experiment: Test F: wheat seedlings sprayed, next day inoculated with Erysiphe graminis (wheat powdery mildew), visual disease rating; conditions: sprayed day before inoculation; for Test F rating (disease control) / pest or weed control at 200 ppm: 200 ppm test suspension; for pest or weed control at 40 ppm / pest or weed control at 200 ppm: Blumeria graminis; for pest or weed control at 40 ppm: 40 ppm test suspension (*)
Source text: as §1
The test suspension was sprayed to the point of run-off on wheat seedlings. The following day the seedlings were inoculated with a spore dust of Erysiphe graminis, (the causal agent of wheat powdery mildew) and incubated in a growth chamber at 20° C. for 8 days, after which time visual disease ratings were made.
as §2

[3] = test system: Puccinia recondita f. sp. tritici; experiment: Test E2: wheat seedlings sprayed, next day inoculated with Puccinia recondita f. sp. tritici (wheat leaf rust), visual disease rating; conditions: sprayed day before inoculation; for Test E2 rating (disease control) / pest or weed control at 200 ppm: 200 ppm test suspension; for pest or weed control at 40 ppm / pest or weed control at 200 ppm: Puccinia recondita; for pest or weed control at 40 ppm: 40 ppm test suspension (*)
Source text: as §1
The test suspension was sprayed to the point of run-off on wheat seedlings. The following day the seedlings were inoculated with a spore suspension of Puccinia recondita f. sp. tritici (the causal agent of wheat leaf rust) and incubated in a saturated atmosphere at 20° C. for 24 h, and then moved to a growth chamber at 20° C. for 7 days, after which time visual disease ratings were made.
as §2

[4] = test system: Alternaria solani; experiment: Test B: tomato seedlings sprayed, next day inoculated with Alternaria solani (tomato early blight), visual disease rating; conditions: sprayed day before inoculation; for Test B rating (disease control) / pest or weed control at 200 ppm: 200 ppm test suspension; for pest or weed control at 40 ppm / pest or weed control at 200 ppm: Alternaria solani; for pest or weed control at 40 ppm: 40 ppm test suspension (*)
Source text: as §1
The test suspension was sprayed to the point of run-off on tomato seedlings. The following day the seedlings were inoculated with a spore suspension of Alternaria solani (the causal agent of tomato early blight) and incubated in a saturated atmosphere at 27° C. for 48 h, and then moved to a growth chamber at 20° C. for 5 days, after which time visual disease ratings were made.
as §2

[5] = test system: Septoria nodorum; experiment: Test C: wheat seedlings sprayed, next day inoculated with Septoria nodorum (wheat glume blotch), visual disease rating; conditions: sprayed day before inoculation; for Test C rating (disease control) / pest or weed control at 200 ppm: 200 ppm test suspension; for pest or weed control at 40 ppm / pest or weed control at 200 ppm: Parastagonospora nodorum; for pest or weed control at 40 ppm: 40 ppm test suspension (*)
Source text: as §1
The test suspension was sprayed to the point of run-off on wheat seedlings. The following day the seedlings were inoculated with a spore suspension of Septoria nodorum (the causal agent of wheat glume blotch) and incubated in a saturated atmosphere at 24° C. for 48 h, and then moved to a growth chamber at 20° C. for 6 days, after which time visual disease ratings were made.
as §2

[6] = test system: Septoria tritici; experiment: Test D: wheat seedlings sprayed, next day inoculated with Septoria tritici (wheat leaf blotch), visual disease rating; conditions: sprayed day before inoculation; for pest or weed control at 40 ppm / pest or weed control at 200 ppm: Zymoseptoria tritici; for pest or weed control at 40 ppm: 40 ppm test suspension (*); for Test D rating (disease control) / pest or weed control at 200 ppm: 200 ppm test suspension
Source text: as §1
The test suspension was sprayed to the point of run-off on wheat seedlings. The following day the seedlings were inoculated with a spore suspension of Septoria tritici (the causal agent of wheat leaf blotch) and incubated in saturated atmosphere at 24° C. for 48 h, and then moved to a growth chamber at 20° C. for 19 days, after which time visual disease ratings were made.
as §2

[7] = test system: Botrytis cinerea; experiment: Test A: tomato seedlings sprayed, next day inoculated with Botrytis cinerea (tomato Botrytis), visual disease rating; conditions: sprayed day before inoculation; for pest or weed control at 40 ppm / pest or weed control at 200 ppm: Botrytis cinerea; for pest or weed control at 40 ppm: 40 ppm test suspension (*); for Test A rating (disease control) / pest or weed control at 200 ppm: 200 ppm test suspension
Source text: as §1
The test suspension was sprayed to the point of run-off on tomato seedlings. The following day the seedlings were inoculated with a spore suspension of Botrytis cinerea (the causal agent of tomato Botrytis) and incubated in saturated atmosphere at 20° C. for 48 h, and then moved to a growth chamber at 24° C. for 3 days, after which time visual disease ratings were made.
as §2

Row | SMILES | Test E1 rating (disease control) ([1]; 200 ppm test suspension) [%] | Test F rating (disease control) [2] [%] | Test E2 rating (disease control) [3] [%] | Test B rating (disease control) [4] [%] | Test C rating (disease control) [5] [%] | Test A rating (disease control) [7] [%] | other results
1 | COc1cc(OC)cc(-c2c(C)nnc(F)c2-c2c(F)cccc2Cl)c1 [Compound 47] | 100 | 99 | 99 | 100 | 99 |  | 
2 | COc1cc(OC)cc(-c2c(C)nnc(Cl)c2-c2c(F)cccc2F)c1 [Compound 24, 3-chloro-4-(2,6-difluorophenyl)-5-(3,5-dimethoxyphenyl)-6-methylpyridazine] |  |  |  |  |  |  | pest or weed control at 40 ppm [6]: 100%; pest or weed control at 40 ppm ([1]; Puccinia recondita): 26%; pest or weed control at 40 ppm [2]: 98%; pest or weed control at 40 ppm [3]: 100%; pest or weed control at 40 ppm [4]: 26%; pest or weed control at 40 ppm [5]: 55%; pest or weed control at 40 ppm [7]: 100%
3 | COc1cc(OC)cc(-c2c(C)nnc(F)c2-c2ccc(F)cc2F)c1 [Compound 46] | 0 | 98 | 98 | 100 | 84 | 99 | Test D rating (disease control) [6]: 100%
4 | COc1cc(OC)cc(-c2cnnc(Cl)c2-c2c(F)cc(F)cc2F)c1 [Compound 5, 3-chloro-5-(3,5-dimethoxyphenyl)-4-(2,4,6-trifluorophenyl)pyridazine] |  |  |  |  |  |  | pest or weed control at 200 ppm [6]: 98%; pest or weed control at 200 ppm ([1]; Puccinia recondita, 200 ppm test suspension): 99%; pest or weed control at 200 ppm [2]: 100%; pest or weed control at 200 ppm [3]: 100%; pest or weed control at 200 ppm [4]: 100%; pest or weed control at 200 ppm [5]: 100%; pest or weed control at 200 ppm [7]: 99%
5 | COc1cc(OC)c(Cl)c(-c2c(C)nnc(Cl)c2-c2c(F)cccc2Cl)c1 [Compound 41] | 86 | 100 | 100 | 99 | 0 | 99 | Test D rating (disease control) [6]: 100%
6 | COc1cc(OC)c(Cl)c(-c2c(C)nnc(F)c2-c2ccc(F)cc2F)c1 [Compound 51] | 0 | 99 | 100 | 100 | 0 | 99 | 
7 | COc1cc(OC)cc(-c2c(CC#N)nnc(C)c2-c2c(F)cccc2F)c1 [Compound 35] | 46 | 99 | 100 | 99 | 99 | 98 | Test D rating (disease control) [6]: 100%
8 | COc1cc(OC)cc(-c2c(C(C)=O)nnc(C)c2-c2c(F)cc(F)cc2F)c1 [Compound 20, 1-[4-(3,5-dimethoxyphenyl)-6-methyl-5-(2,4,6-trifluorophenyl)-3-pyridazinyl]ethanone] |  |  |  |  |  |  | pest or weed control at 40 ppm [6]: 96%; pest or weed control at 40 ppm ([1]; Puccinia recondita): 41%; pest or weed control at 40 ppm [2]: 98%; pest or weed control at 40 ppm [3]: 99%; pest or weed control at 40 ppm [4]: 26%; pest or weed control at 40 ppm [5]: 0%; pest or weed control at 40 ppm [7]: 99%
9 | COc1cc(OC)cc(-c2c(C)nnc(C)c2-c2ccc(F)cc2Cl)c1 [Compound 52] | 9 | 99 | 100 | 94 | 87 | 99 | 
10 | COc1cc(OC)cc(-c2c(C)nnc(Cl)c2-c2ccc(F)cc2Cl)c1 [Compound 48] | 0 | 97 | 99 | 100 | 0 |  | 
11 | COc1cc(OC)c(Cl)c(-c2c(C)nnc(Cl)c2-c2ccc(F)cc2Cl)c1 [Compound 53] | 98 | 100 | 100 | 99 | 98 | 99 | 
12 | COc1cc(OC)cc(-c2c(C(C)(C)O)nnc(C)c2-c2c(F)cc(F)cc2F)c1 [Compound 21, 4-(3,5-dimethoxyphenyl)-α,α,6-trimethyl-5-(2,4,6-trifluorophenyl)-3-pyridazinemethanol] |  |  |  |  |  |  | pest or weed control at 40 ppm [6]: 98%; pest or weed control at 40 ppm [2]: 100%; pest or weed control at 40 ppm [3]: 100%; pest or weed control at 40 ppm [4]: 99%; pest or weed control at 40 ppm [5]: 40%; pest or weed control at 40 ppm [7]: 100%
13 | COc1cc(OC)c(Cl)c(-c2c(C)nnc(C)c2-c2ccc(F)cc2F)c1 [Compound 49] | 100 | 100 | 100 | 99 | 99 |  | 
14 | COc1cc(-c2c(C)nnc(C)c2-c2ccc(F)cc2F)cc(OC)c1Cl [Compound 50] | 100 | 100 | 100 | 100 | 100 |  | 
15 | COc1cc(OC)cc(-c2cnnc(CCl)c2-c2c(F)cc(F)cc2F)c1 [Compound 7, 3-(chloromethyl)-5-(3,5-dimethoxyphenyl)-4-(2,4,6-trifluorophenyl)-pyridazine] |  |  |  |  |  |  | pest or weed control at 200 ppm [6]: 96%; pest or weed control at 200 ppm [2]: 99%; pest or weed control at 200 ppm [3]: 98%; pest or weed control at 200 ppm [4]: 26%; pest or weed control at 200 ppm [5]: 94%; pest or weed control at 200 ppm [7]: 91%
16 | COc1cc(OC)cc(-c2c(Cl)nnc(C)c2-c2ccc(Cl)cc2)c1 [Compound 1] |  | 0 | 0 | 0 | 0 | 0 | Test D rating (disease control) [6]: 0%
